What is called IC50 is the concentration needed to halve the response being measured. A high value points to weaker potency in that assay.

The nature of the assay: The compound was evaluated for opioid receptors binding affinity competition with [3H]diprenorphine.

The structures appear in SMILES notation.

Compound `CC(C)C[C@@H](NC(=O)[C@H](Cc1ccccc1)NC(=O)CNC(=O)[C@@H](C)NC(=O)[C@@H](N)Cc1ccc(O)cc1)C(=O)O` [DADLE] came in with an IC50 of 36 nM.

(Values after ChEMBL document CHEMBL1129416, “Brain-targeted delivery of a leucine-enkephalin analogue by retrometabolic design” (J Med Chem, 1996).)
